Data published in US20250154180A1, “CRK-LIKE (CRKL) ADAPTOR PROTEIN INHIBITORS AND METHODS OF MAKING AND USING THE SAME” (Rutgers, The State University of New Jersey, priority 2022, published 2025).

Experiments:
4T1 breast tumor = assay: 4T1-Luc orthotopic syngeneic breast tumor model; type: in vivo, Balb/c mice; settings: 5.0 μg/g oral gavage
Source text: Syngeneic orthotopic 4T1 breast tumor-bearing mouse model was established by inoculating 5×10^4 4T1-Luc cells mixed with Matrigel were into the left inguinal fat pad of Balb/c mice from Jackson Laboratories. This orthotopic syngeneic breast tumor model is a tool for preclinical testing of anti-cancer drugs or immunotherapy that require an intact immune system to elicit activity.
To test the effects of the disclosed compounds on the xenograft mouse models, the HCC-Sk-Hep1 cell line xenograft model in NSG mice and 4T1-Luc orthotopic syngeneic breast tumor model in Balb/c mice was used. After confirming the palpable tumor in NSG or Balb/c mice. […] Compound III is referred to as “NC5-140-1” and Compound I is referred to as “NC5-140-2” in FIGS. 11A-11C.

CrkL = CrkL (Homo sapiens, UniProt P46109); assay: Thermal shift assay, CrkL; type: binding; settings: increase of 2° C. or greater in Tm defined as positive
Chain of CrkL (P46109 whole entry): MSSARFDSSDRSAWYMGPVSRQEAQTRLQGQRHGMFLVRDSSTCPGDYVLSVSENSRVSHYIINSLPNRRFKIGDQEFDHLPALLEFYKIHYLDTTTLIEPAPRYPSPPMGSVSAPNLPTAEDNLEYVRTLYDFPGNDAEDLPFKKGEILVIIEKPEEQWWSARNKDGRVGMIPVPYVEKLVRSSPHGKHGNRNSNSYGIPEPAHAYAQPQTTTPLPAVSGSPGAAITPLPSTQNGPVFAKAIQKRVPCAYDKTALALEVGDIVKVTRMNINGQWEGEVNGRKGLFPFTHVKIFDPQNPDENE
Procedure: Thermal Shift Assay—Thermal shift assay is a thermal-denaturation assay, which can measure the thermal stability of a tested protein. When a protein of interest is bound to a ligand (or drug), its melting temperature increases. For each single well assay, CrkL (1 μg per well), SYPRO® Orange (1:500 dilution from original stock), candidate drugs (same final concentration as in AlphaScreen) and reaction buffer (1×TBS) were mixed. The total volume for a single well was 10 ul. The assay was quantified by a melt curve on a real-time PCR machine, using melting temperatures from 20° C. to 95° C.
To identify specific pCrk inhibitors, thermal shift and in vitro kinase assays were used to distinguish between these possibilities. In a thermal shift assay, each tested protein (purified Ab1 or CrkL) has a melting temperature (Tm) detected by a protein stain dye such as Sypro Orange. After binding to a drug, the Tm of the tested protein will increase as a higher temperature is required to unfold the protein (FIG. 2A). A total of 71 candidate compounds from different libraries were evaluated, which were previously identified by the initial AlphaScreen assay, on both CrkL and Ab1. An increase of 2° C. or greater in Tm (stable increase in three independent experiments) was defined as a positive result in these thermal shift assays.

P-ERK1/2 in PBMC = assay: Western blotting, PBMC; type: cell-based, human; settings: NC5 1, 5, 10 uM, 24 hours
[1] = system: pCrkL in MDA-MB-231-LUC cells; assay: Flow cytometry of intracellular pCrkL/CrkL, MDA-MB-231-LUC; type: cell-based; settings: three M Pomiferin for six days
Source text: The cells were labeled with total CrkL or phosphor-CrkL by Alexa Fluor 647 (AF-647) and stained with secondary antibodies conjugated with AF-647 as staining control. […] The star symbol indicates the significance of vehicle vs. Pomiferin of the indicated concentration. *p<0.05, **p<0.005, ***p<0.0005. Data represent mean±SEM, n=4.
The intracellular pCrkL level from breast cancer cell lines between Pomiferin-treated and vehicle control groups was examined.

PBMC cells = assay: Annexin V/PI apoptosis, PBMC; type: cell-based, human; settings: various concentrations, 24 hours
Procedure: Annexin V/PI Staining—Experimental cells were collected, washed with 1×PBS, resuspended in the binding buffer, and stained with an Annexin V-FITC assay Kit (Millipore Sigma). The cells were incubated with 50 μg/ml Annexin V in 1× binding buffer at room temperature for 15 minutes, then 10 μg/ml propidium iodide for another 15 minutes and analyzed by flow cytometry (EPICS XL). Annexin V-positive/PI-negative cells were considered early apoptotic, cells with both Annexin V and PI-positive to be late apoptotic, and Annexin V negative but PI-positive to be “necrotic.” The percent of apoptosis was calculated as the sum of the percentages of both early and late apoptotic cells.
To figure out the features of cytotoxic effects of Pomiferin on breast cancer cells. Pomiferin-treated breast cancer cells were stained with an Annexin V/PI kit and measured them with Flow Cytometry.

Ab1 = Ab1 (Homo sapiens, UniProt P00519); assay: Thermal shift assay, Ab1; type: binding
Chain of Ab1 (P00519 whole entry): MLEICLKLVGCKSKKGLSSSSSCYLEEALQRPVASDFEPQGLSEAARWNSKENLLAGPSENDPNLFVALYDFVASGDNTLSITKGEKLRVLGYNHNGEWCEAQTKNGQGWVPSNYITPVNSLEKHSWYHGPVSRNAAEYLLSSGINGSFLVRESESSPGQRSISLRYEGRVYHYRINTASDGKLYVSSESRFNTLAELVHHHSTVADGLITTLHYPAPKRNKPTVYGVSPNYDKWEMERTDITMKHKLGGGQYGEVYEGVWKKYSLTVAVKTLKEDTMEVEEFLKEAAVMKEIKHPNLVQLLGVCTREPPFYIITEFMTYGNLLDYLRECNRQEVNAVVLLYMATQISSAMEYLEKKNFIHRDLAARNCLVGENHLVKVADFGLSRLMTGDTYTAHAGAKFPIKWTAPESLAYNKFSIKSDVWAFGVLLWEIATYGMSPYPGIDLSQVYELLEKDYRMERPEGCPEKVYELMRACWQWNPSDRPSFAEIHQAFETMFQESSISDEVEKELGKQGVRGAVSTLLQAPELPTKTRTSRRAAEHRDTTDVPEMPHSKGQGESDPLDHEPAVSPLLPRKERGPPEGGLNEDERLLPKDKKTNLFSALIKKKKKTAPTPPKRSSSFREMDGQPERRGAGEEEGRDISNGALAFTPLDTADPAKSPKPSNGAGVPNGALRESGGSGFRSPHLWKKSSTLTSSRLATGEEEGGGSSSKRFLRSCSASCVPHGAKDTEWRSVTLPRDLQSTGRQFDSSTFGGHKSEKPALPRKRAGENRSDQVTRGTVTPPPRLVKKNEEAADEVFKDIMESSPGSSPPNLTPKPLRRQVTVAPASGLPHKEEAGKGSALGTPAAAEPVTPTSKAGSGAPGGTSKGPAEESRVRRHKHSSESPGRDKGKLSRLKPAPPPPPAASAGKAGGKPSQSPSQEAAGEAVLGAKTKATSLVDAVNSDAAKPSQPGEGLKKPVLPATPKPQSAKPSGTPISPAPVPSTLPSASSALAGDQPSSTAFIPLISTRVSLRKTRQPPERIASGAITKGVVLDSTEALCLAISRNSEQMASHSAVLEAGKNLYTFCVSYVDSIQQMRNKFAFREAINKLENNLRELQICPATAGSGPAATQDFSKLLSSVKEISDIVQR
Procedure: In a thermal shift assay, each tested protein (purified Ab1 or CrkL) has a melting temperature (Tm) detected by a protein stain dye such as Sypro Orange. […] An increase of 2° C. or greater in Tm (stable increase in three independent experiments) was defined as a positive result in these thermal shift assays.

Thermodynamic solubility = type: physicochemical; settings: thermodynamic from solid
Procedure: In this example, solubility measurement assays were performed using a phosphate buffer (also referred to as “PB”) system and a water system to evaluate thermodynamic solubility. The PB system was at a pH of 7.4 to mimic in vivo environments. For the PB system, the values were determined to be NC5: Thermodynamic Solubility pH=7.4<0.42 μg/mL; Compound III: Thermodynamic Solubility pH=7.4<0.48 μg/mL; and Compound I: Thermodynamic Solubility pH=7.4<0.48 μg/mL. Results for the water assay were as follows: NC5: Thermodynamic Solubility Water<0.42 μg/mL; Compound III: Thermodynamic Solubility Water<0.48 μg/mL; and Compound I: Thermodynamic Solubility Water<0.48 μg/mL.

AML cell line (MoLM-13) = assay: CCK-8 cell viability, MoLM-13; type: cell-based, human; settings: 1 uM, 5 uM, 10 uM; 48 hours
Procedure: In this example, activities of NC5, Compound III, and the known chemotherapeutic, Cytarabine, were evaluated in the AML cell line (MoLM-13). MoLM-13 cells were collected and seeded at 5,000 cells/well in 96-well plates. The cells were incubated for 24 hours before the addition of either DMSO control or drug at various concentrations. After an additional 48 hours of incubation, 3 μL of CCK-8 was added to every well and incubated at 37° C. for 3 hours. Absorbance was measured at 460 nm in a plate reader. […] The related absorbance was normalized and plotted as line graphs. p-values were determined through two tails student t-tests (*=p<0.5, **=p<0.01, ***=p<0.001).

CC(C)=CCc1c2c(c3occ(-c4ccc(O)c(O)c4)c(=O)c3c1O)C=CC(C)(C)O2 [Pomiferin, 3′,4′,5-Trihydroxy-6″,6″-dimethyl-6-(3-methylbut-2-en-1-yl)-6″H-pyrano[2″,3″:7,8]isoflavone]
tumor growth (4T1 breast tumor): steady growth inhibition
median survival (4T1 breast tumor; vehicle 25 days): 38.5 days
Tm of CrkL (thermal shift) (CrkL): the Tm of CrkL increased
P-ERK1/2 levels (Western blotting) (P-ERK1/2 in PBMC): minimal changes
total CrkL expression [1]: not many differences in total CrkL expression
intracellular pCrkL level ([1]; vs vehicle): reduced the intracellular pCrkL level
apoptosis (PBMC cells): limited responses
binding to Ab1 versus Crk (thermal shift) (Ab1): specifically binds to Crk, but not Ab1 proteins
solubility thermodynamic (Thermodynamic solubility; pH 7.4, aqueous buffer): < 0.42 µg/mL
solubility thermodynamic (Thermodynamic solubility; water): < 0.42 µg/mL
cell viability (CCK-8) (AML cell line (MoLM-13)): decreased cell viability
